From ChEMBL document CHEMBL1201862, “PubChem BioAssay data set” (2004)
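Five compound concentrations were applied to cells in 96-well plates for 48 hours; endpoints were derived by simple linear interpolation of the resulting dose-response curve. The concentration for 50% growth inhibition is given as GI50.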 Active and inactive are the calls of the source. Cut-off read from the data, not from the text of the source: active = GI50 up to about 1.1 µM and inactive = higher.

Experiments:
Experiment in all cases: growth of human tumour cells (NCI), 48 h
[1] = test system: DU-145
[2] = test system: TK-10
[3] = test system: 786-0
[4] = test system: NCI-H226
[5] = test system: MDA-MB-231
[6] = test system: COLO 205
[7] = test system: NCI-H460
[8] = test system: SW-620
[9] = test system: CCRF-CEM
[10] = test system: T47D
[11] = test system: LXFL 529
[12] = test system: A498
[13] = test system: BT-549
[14] = test system: ACHN
[15] = test system: NCI/ADR-RES
[16] = test system: OVCAR-8
[17] = test system: HOP-92
[18] = test system: SK-MEL-28
[19] = test system: MDA-MB-435
[20] = test system: HCT-15

| SMILES | GI50 [1] | GI50 [2] | GI50 [3] | GI50 [4] | GI50 [5] | GI50 [6] | GI50 [7] | GI50 [8] | GI50 [9] | GI50 [10] | GI50 [11] | GI50 [12] | GI50 [13] | GI50 [14] | GI50 [15] | GI50 [16] | GI50 [17] | GI50 [18] | GI50 [19] | GI50 [20] |
| --- | --- | --- | --- | --- | --- | --- | --- | --- | --- | --- | --- | --- | --- | --- | --- | --- | --- | --- | --- | --- |
| O=c1c2cc(Cl)ccc2n2nnc3ccc(NCCNCCO)c1c32 | 3.44 µM (inactive) | 2.4 µM (inactive) | 0.741 µM (active) | 2.11 µM (inactive) | 1.47 µM (inactive) | 0.977 µM (active) | 0.378 µM (active) | 0.466 µM (active) | 0.56 µM (active) | 5.15 µM (inactive) | 1.09 µM (active) | 1.44 µM (inactive) | 1.79 µM (inactive) | 0.682 µM (active) | 0.665 µM (active) | 0.614 µM (active) | 2.02 µM (inactive) | 1.79 µM (inactive) | 1.12 µM (inactive) | 0.718 µM |
| N#C/C(c1nc2ccccc2[nH]1)=c1\s/c(=C/c2ccc(Cl)cc2)c(=O)n1-c1ccccc1 |  | > 100 µM (inactive) | > 100 µM (inactive) | > 100 µM (inactive) |  | > 100 µM (inactive) | > 100 µM (inactive) | > 100 µM (inactive) | > 100 µM (inactive) |  | > 100 µM (inactive) | > 100 µM (inactive) |  | > 100 µM (inactive) |  | > 100 µM (inactive) | > 100 µM (inactive) | > 100 µM (inactive) |  | > 100 µM |
| CC(=O)OCC1OC(OC2CC3C(C)(C)C(OC(C)=O)CC[C@]3(C)C3CCC45CC4(CC[C@H]5C(C)CC(O)[C@@H](O)C(C)(C)O)[C@]23C)C(O)C(O)C1O (stereo partly drawn) |  | 7.76 µM (inactive) | 7.82 µM (inactive) | 7.18 µM (inactive) |  | 7.8 µM (inactive) | 8.95 µM (inactive) | 7.69 µM (inactive) | 6.46 µM (inactive) |  | 5.65 µM (inactive) | 7 µM (inactive) |  | 7.98 µM (inactive) |  | 7.45 µM (inactive) | 7.01 µM (inactive) | 7.4 µM (inactive) |  | 7.64 µM |
| NNC(=O)CCC(=O)NC1C2CC3CC(C2)CC1C3 (stereo not drawn) |  | > 100 µM (inactive) | > 100 µM (inactive) | > 100 µM (inactive) |  | > 100 µM (inactive) | > 100 µM (inactive) | > 100 µM (inactive) | > 100 µM (inactive) |  | > 100 µM (inactive) | > 100 µM (inactive) |  | > 100 µM (inactive) |  | > 100 µM (inactive) | > 100 µM (inactive) | > 100 µM (inactive) |  | > 100 µM |
| Cc1nc2ccccc2c(=O)[nH]1 |  | > 100 µM (inactive) | > 100 µM (inactive) | > 100 µM (inactive) |  | > 100 µM (inactive) | > 100 µM (inactive) | > 100 µM (inactive) | > 100 µM (inactive) |  | > 100 µM (inactive) | > 100 µM (inactive) |  | > 100 µM (inactive) |  | > 100 µM (inactive) | > 100 µM (inactive) | > 100 µM (inactive) |  | > 100 µM |
| c1ccc2c3c([nH]c2c1)C1(CCCCC1)c1c([nH]c2ccccc12)C31CCCCC1 |  | 30.9 µM (inactive) | 15.1 µM (inactive) | 27.5 µM (inactive) |  | 37.9 µM (inactive) | 34.7 µM (inactive) | > 100 µM (inactive) | 79.8 µM (inactive) |  | 40.8 µM (inactive) | 24.2 µM (inactive) |  | 17.5 µM (inactive) |  | 17.8 µM (inactive) | 20.4 µM (inactive) | 37.1 µM (inactive) |  | > 100 µM |
| COc1ccc(OC(=O)N2C/C(=C\c3ccccc3)C(=O)/C(=C/c3ccccc3)C2)cc1 | 24.9 µM (inactive) | 18.2 µM (inactive) | 2.96 µM (inactive) | 10.1 µM (inactive) | 3.21 µM (inactive) | 7.74 µM (inactive) | 5.42 µM (inactive) | 1.03 µM (active) | 1.02 µM (active) | 16 µM (inactive) | 2.64 µM (inactive) | 2.33 µM (inactive) | 2.24 µM (inactive) | 3.94 µM (inactive) |  | 2.47 µM (inactive) | 19.1 µM (inactive) | 2.14 µM (inactive) |  | 2.79 µM |
